PMC8556085, “Antimicrobial and Antioxidant Secondary Metabolites from Trifolium baccarinii Chiov. (Fabaceae) and Their Mechanisms of Antibacterial Action” (BioMed Research International, 2021)
≈ marks a conversion by molar mass, not a printed value. Marks after values point to notes of the source that are not given here.

Experiments:
[1] = test system: Pseudomonas aeruginosa ATCC27853; assay: Broth microdilution MIC/MMC; type: cell-based
Description: (§1) The antimicrobial activity was performed against five bacterial and two fungal species. The selected microorganisms were the Gram-positive (Staphylococcus aureus ATCC25923, methicillin-resistant Staphylococcus aureus 03 (MRSA03), and methicillin-resistant Staphylococcus aureus 04 (MRSA04)) and Gram-negative (Pseudomonas aeruginosa ATCC27853 and Escherichia coli S2(1)) bacteria and yeast strains of Candida albicans ATCC10231 and Cryptococcus neoformans H99. These microorganisms were taken from our laboratory collection. The fungal and bacterial strains were conserved on Sabouraud Dextrose Agar (SDA, Conda, Madrid, Spain) and nutrient agar (NA, Conda) slants, respectively.
(§2) The antimicrobial activity was investigated by determining the minimum inhibitory concentrations (MICs), minimum bactericidal concentrations (MBC), and minimum fungicidal concentrations (MFCs). MICs of extracts/compounds were monitored using the broth microdilution method. Dimethyl sulfoxide (DMSO, Fisher Chemicals) was used to dissolve the test sample to produce a stock solution that was twofold serially diluted in Mueller-Hinton broth (MHB) for bacteria and Sabouraud Dextrose Broth (SDB) for fungi to obtain a concentration range of 4096 to 0.25 μg/mL. One hundred microliters of each concentration was introduced into a well (96-well microplate) containing 90 μL of SDB or MHB and 10 μL of inoculum (at 1 × 10^6 CFU/mL for bacteria and 1 × 10^5 spores/mL for yeasts) which were added to obtain a final concentration range of 2048 to 0.125 μg/mL. Plates were covered and incubated on the shaker at 37°C, 30°C, and 30°C during 24 h, 48 h, and 72 h for bacteria, Candida albicans, and Cryptococcus neoformans, respectively. The MICs were visually assessed after the incubation period and were considered the lowest sample concentration that inhibits the growth or the visual growth of the organism.
(§3) The positive controls were oxacillin (Sigma-Aldrich, Steinheim, Germany) for bacteria and nystatin (Sigma-Aldrich, Steinheim, Germany) for yeasts, and the negative control was broth with 20 μL of DMSO. The assay was carried out in triplicate.

[2] = test system: methicillin-resistant Staphylococcus aureus 03 (MRSA03); assay: Broth microdilution MIC/MMC; type: cell-based
Description: as §1, §2, §3

[3] = test system: Cryptococcus neoformans H99; assay: Broth microdilution MIC/MMC; type: cell-based
Description: as §1, §2, §3

[4] = test system: Staphylococcus aureus ATCC25923; assay: Broth microdilution MIC/MMC; type: cell-based
Description: as §1, §2, §3

[5] = test system: methicillin-resistant Staphylococcus aureus 04 (MRSA04); assay: Broth microdilution MIC/MMC; type: cell-based
Description: as §1, §2, §3

[6] = test system: Candida albicans ATCC10231; assay: Broth microdilution MIC/MMC; type: cell-based
Description: as §1, §2, §3

Escherichia coli S2(1) = assay: Broth microdilution MIC/MMC; type: cell-based
Description: as §1, §2, §3

[7] = set-up: method as in doi:10.22159/ijpps.2017v9i2.13964; settings: cited from earlier work
[8] = test system: tested bacteria and yeasts; assay: Broth microdilution MIC/MMC, summary over all strains; type: cell-based
Description: as §1, §2, §3

[9] = test system: yeasts (C. albicans, C. tropicalis, and C. neoformans); set-up: method as in PMID 26887239; settings: cited from earlier work
[10] = set-up: method as in doi:10.22159/ijpps.2017v9i2.13964; settings: cited from earlier work; remark: listed apart in the source
[11] = set-up: method as in doi:10.22159/ijpps.2017v9i2.13964; settings: cited from earlier work; remark: listed apart in the source
[12] = set-up: method as in doi:10.22159/ijpps.2017v9i2.13964; settings: cited from earlier work; remark: listed apart in the source
[13] = test system: Gram-positive (S. aureus, S. epidermidis) and Gram-negative (P. aeruginosa) bacteria; set-up: method as in PMID 26887239; settings: cited from earlier work
[14] = set-up: method as in doi:10.22159/ijpps.2017v9i2.13964; settings: cited from earlier work; remark: listed apart in the source
[15] = DPPH free radical scavenging assay; settings: mean ± SD
Description: The free radical scavenging activity of extracts and compounds was evaluated according to the described method. The EC50 (μg/mL), which is the amount of sample necessary to inhibit by 50% the absorbance of free radical DPPH, was calculated. Vitamin C was used as a standard control. All the analyses were carried out in triplicate and repeated three times.

[16] = Gallic acid equivalent antioxidant capacity (GEAC) assay; settings: ABTS radical, 420 nm, 240 s; mean ± SD
Description: The GEAC test was performed as described previously with some slight modifications. The laccase was purified from Sclerotinia sclerotiorum according to the described protocol. 20 μL of laccase (1 mM stock solution), 20 μL of test sample, 10 μL of ABTS (2,2′-azino-bis(3-ethylbenzothiazoline-6-sulfonic acid) (74 mM stock solution), and 950 μL of acetate buffer (pH = 5.0, 100 mM) were added in a quartz cuvette. The concentrations of the samples in the assay mixture were 800, 400, 200, 100, and 10 μg/mL for the extracts and 200, 100, 50, 25, and 12.5 μg/mL for the isolated compounds. The content of the generated ABTS^●+ radical was measured at 420 nm after 240 s reaction time and was converted to gallic acid equivalents by the use of a calibration curve (Pearson's correlation coefficient: r = 0.998) constructed with 0, 4, 10, 14, 28, 56, and 84 μM gallic acid standards rather than Trolox. Experiments were done in triplicate and repeated three times with similar results.

[17] = Pseudomonas aeruginosa ATCC27853
[18] = Staphylococcus aureus ATCC25923

Structure (SMILES): COc1ccc(-c2coc3cc(O)ccc3c2=O)cc1 [compound 2, formononetin]
- MBC [1, 17]: 128 µg/mL (≈ 477 µM)
- MMC/MIC [1, 17]: 1
- MIC ([1]; Pseudomonas aeruginosa ATCC27853, 24 h, 37°C, read-out: MIC): 128 µg/mL (≈ 477 µM)
- MMC/MIC ([2]; MRSA03): 2
- MBC ([2]; Staphylococcus aureus, MRSA03): 256 µg/mL (≈ 954 µM)
- MIC ([2]; Staphylococcus aureus, MRSA03, 24 h, 37°C, read-out: MIC): 128 µg/mL (≈ 477 µM)
- MFC ([3]; Cryptococcus neoformans H99): 64 µg/mL (≈ 239 µM)
- MMC/MIC ([3]; Cryptococcus neoformans H99): 1
- MIC ([3]; Cryptococcus neoformans H99, 72 h, 30°C, read-out: MIC): 64 µg/mL (≈ 239 µM)
- MBC [4, 18]: 128 µg/mL (≈ 477 µM)
- MMC/MIC [4, 18]: 2
- MIC ([4]; Staphylococcus aureus ATCC25923, 24 h, 37°C, read-out: MIC): 64 µg/mL (≈ 239 µM)
- MMC/MIC ([5]; MRSA04): 2
- MBC ([5]; Staphylococcus aureus, MRSA04): 256 µg/mL (≈ 954 µM)
- MIC ([5]; Staphylococcus aureus, MRSA04, 24 h, 37°C, read-out: MIC): 128 µg/mL (≈ 477 µM)
- MFC ([6]; Candida albicans ATCC10231): 128 µg/mL (≈ 477 µM)
- MMC/MIC ([6]; Candida albicans ATCC10231): 2
- MIC ([6]; Candida albicans ATCC10231, 48 h, 30°C, read-out: MIC): 64 µg/mL (≈ 239 µM)
- MBC (Escherichia coli S2(1)): 128 µg/mL (≈ 477 µM)
- MMC/MIC (Escherichia coli S2(1)): 2
- MIC (Escherichia coli S2(1); 24 h, 37°C, read-out: MIC): 64 µg/mL (≈ 239 µM)
- IC50 against hydroxyl radical [7]: 9.48 µg/mL (≈ 35.3 µM)
- antimicrobial activity class of pure compounds by cutoff points ([8]; against specific microorganism, cutoff points of ref 33): moderate/low
- MIC ([8]; read-out: MIC (range over the tested microorganisms)): 64 to 128 µg/mL (≈ 239 to 477 µM)
- minimum inhibitory concentration [9]: 25 µg/mL (≈ 93.2 µM)
- IC50 against DPPH [10]: 4.65 µg/mL (≈ 17.3 µM)
- IC50 against hydrogen peroxide [11]: 4.75 µg/mL (≈ 17.7 µM)
- IC50 against superoxide radical [12]: 4.27 µg/mL (≈ 15.9 µM)
- minimum inhibitory concentration [13]: 200 µg/mL (≈ 746 µM)
- IC50 against nitric oxide [14]: 5.0 µg/mL (≈ 18.6 µM)
- DPPH free radical scavenging activity (EC50) [15]: 6.39 ± 0.62^e μg/mL
- Gallic acid equivalent antioxidant capacity (GEAC) [16]: 77.91 ± 0.59^e μg/mL
